How the values were obtained:
[1] = tested on: JAK2(JH1domain-catalytic)
panel of 103 kinases = assay: KINOMEscan kinase selectivity profiling (whole panel); assay type: binding; conditions: 10 and 1 μM
Protocol: The kinase inhibition profile of compounds 94 and 95 was assessed against 103 protein kinases by Eurofins DiscoverX, LLC., using the KINOMEscan assay. Kinase-tagged T7 phage strains were grown in parallel in 24-well blocks in an E. coli host derived from the BL21 strain. E. coli were grown to log-phase and infected with T7 phage from a frozen stock (multiplicity of infection = 0.4) and incubated with shaking at 32 °C until lysis (90–150 min). The lysates were centrifuged (6000g) and filtered (0.2 μm) to remove cell debris. The remaining kinases were produced in HEK-293 cells and subsequently tagged with DNA for qPCR detection. […] The liganded beads were blocked with excess biotin and washed with blocking buffer (SeaBlock (Pierce), 1% BSA, 0.05% Tween 20, 1 mM DTT) to remove unbound ligand and to reduce nonspecific phage binding. […] Test compounds were prepared as 100× stocks in 100% DMSO and directly diluted into the assay. All reactions were performed in polypropylene 384-well plates in a final volume of 0.02 mL. […] The kinase concentration in the eluates was measured by qPCR.
The compound(s) were screened at the concentration(s) requested, and results for primary screen binding interactions are reported as RA (%), where lower numbers indicate stronger hits in the matrix. RA=(testcompoundsignal−PCsignal/NCsignal−PCsignal)×100
Test compound = Cpd. […]

Log D determination = assay type: physicochemical; conditions: pH 7.4, n-octanol/PBS
Protocol: Calibration curves for phosphate-buffered saline (PBS) (pH = 7.4) and octanol were prepared (0.05–5 μM). The buffer and n-octanol phases were shaken, using phosphate buffer (pH = 7.4). The phase ratios of buffer to n-octanol were 1:1 (0.8 mL octanol:0.8 mL PBS) and 1:3 (0.4 mL octanol:1.2 mL PBS). Octanol was then pipetted into a HPLC vial, followed by the addition of 1.6 μL of a 10 mM stock DMSO solution and the buffer. The vial was mixed with a vortex mixer and shaken for 3 h in the dark at 23 °C. Subsequently, the aqueous and organic phases were sampled with a syringe into a new HPLC vial, and the samples were analyzed using UHPLC/DAD.

PBMCs = assay: Cytokine release from PHA-stimulated PBMCs; assay type: cell-based, human; conditions: for production of pro-inflammatory cytokines IL-8, IL-1β, IL-6, IL-10, and TNF-α: 1, 2.5, and 5 μM, 18 h
Protocol: Human PBMCs from healthy donors were isolated from heparinized blood by density gradient centrifugation with Ficoll-Paque. The isolated cells were washed twice with PBS, resuspended in RPMI 1640 medium (Sigma-Aldrich, St. Louis, MO, USA) supplemented with 10% heat-inactivated fetal bovine serum (Gibco), 2 mM L-glutamine (Sigma-Aldrich), 100 U/mL penicillin (Sigma-Aldrich), and 100 μg/mL streptomycin (Sigma-Aldrich), and used in the assays.
Peripheral blood mononuclear cells were seeded (500,000 cells/well) in 24-well plates in 500 μL of growth medium and treated with compounds 94, 95, and neflamapimod (1, 2.5, and 5 μM) in the presence or absence of PHA (1 μg/mL) or the corresponding vehicle (0.1% DMSO). Cell-free supernatants were collected after 18 h of incubation (37 °C, 5% CO2) and stored at −80 °C until tested. Cytokine production was determined with BD Cytometric Bead Array human inflammatory cytokines kit (BD Bioscience) on an Attune NxT flow cytometer (Thermo Fisher Scientific, Waltham, MA, USA). Standard curves were generated using recombinant cytokines contained in the kit. The data were analyzed using the FlowJo (Tree Star, Inc., Ashland, OR, USA) and Prism (GraphPad Prism 6.0, GraphPad Software) software.

With `CN(C)CCNC(=O)c1cc2c(cnn2CC2CCCCC2)cc1Cc1ccc(F)cc1F` [Compound 95, 1-(Cyclohexylmethyl)-5-(2,4-difluorobenzyl)-N-(2-(dimethylamino)ethyl)-1H-indazole-6-carboxamide] the RA @ 1000nM (ACVR1B) was 100%, the RA @ 10000nM (ACVR1B) was 100% and the RA @ 1000nM (AKT1) was 100%. It also gave an RA @ 10000nM (AKT1) of 100%, an RA @ 1000nM (AKT2) of 100% and an RA @ 10000nM (AKT2) of 88%. For the same molecule, the RA @ 1000nM (BMPR2) was 89%, the RA @ 10000nM (BMPR2) was 92% and the RA @ 1000nM (FGFR2) was 100%. It also gave an RA @ 10000nM (FGFR2) of 100%, an RA @ 1000nM (IKKα) of 92% and an RA @ 10000nM (IKKα) of 75%. The RA @ 1000nM [1] was 100%, the RA @ 10000nM [1] was 100% and the RA @ 1000nM (JNK1) was 100%. It also gave an RA @ 10000nM (JNK1) of 27%, an RA @ 1000nM (JNK2) of 44% and an RA @ 10000nM (JNK2) of 3.8%. For the same molecule, the RA @ 1000nM (LCK) was 94%, the RA @ 10000nM (LCK) was 100% and the RA @ 1000nM (MAPKAPK5) was 100%. For the same molecule, the RA @ 10000nM (MAPKAPK5) was 100%, the RA @ 1000nM (MARK3) was 79% and the RA @ 10000nM (MARK3) was 86%. The RA @ 1000nM (MKNK1) was 100%, the RA @ 10000nM (MKNK1) was 100% and the RA @ 1000nM (p38α) was 6.7%. For the same molecule, the RA @ 10000nM (p38α) was 0.1%, the RA @ 1000nM (PCTK1) was 87% and the RA @ 10000nM (PCTK1) was 79%. For the same molecule, the RA @ 1000nM (PLK1) was 100%, the RA @ 10000nM (PLK1) was 100% and the RA @ 1000nM (YANK3) was 100%. The RA @ 10000nM (YANK3) was 100%, the kinase selectivity (panel of 103 kinases) was “high selectivity for p38α MAPK” and the “measured log D at pH 7.4” value (Log D determination) was 2.77. For the same molecule, the “production of IL-12” value (PBMCs) was “increased, albeit at a low level” and the “production of pro-inflammatory cytokines IL-8, IL-1β, IL-6, IL-10, and TNF-α” value (PBMCs) was “significantly inhibited”.

`CC(C)Cn1ncc2cc(Cc3ccc(F)cc3F)c(C(=O)NCCN(C)C)cc21` [Compound 94, 5-(2,4-Difluorobenzyl)-N-(2-(dimethylamino)ethyl)-1-isobutyl-1H-indazole-6-carboxamide] gave an RA @ 1000nM (ACVR1B) of 100%, an RA @ 10000nM (ACVR1B) of 100% and an RA @ 1000nM (AKT1) of 100%. For the same molecule, the RA @ 10000nM (AKT1) was 75%, the RA @ 1000nM (AKT2) was 89% and the RA @ 10000nM (AKT2) was 76%. The RA @ 1000nM (BMPR2) was 86%, the RA @ 10000nM (BMPR2) was 95% and the RA @ 1000nM (FGFR2) was 95%. The RA @ 10000nM (FGFR2) was 100%, the RA @ 1000nM (IKKα) was 82% and the RA @ 10000nM (IKKα) was 87%. For the same molecule, the RA @ 1000nM [1] was 98%, the RA @ 10000nM [1] was 100% and the RA @ 1000nM (JNK1) was 77%. The RA @ 10000nM (JNK1) was 41%, the RA @ 1000nM (JNK2) was 52% and the RA @ 10000nM (JNK2) was 8.3%. The RA @ 1000nM (LCK) was 100%, the RA @ 10000nM (LCK) was 97% and the RA @ 1000nM (MAPKAPK5) was 100%. For the same molecule, the RA @ 10000nM (MAPKAPK5) was 100%, the RA @ 1000nM (MARK3) was 100% and the RA @ 10000nM (MARK3) was 100%. The RA @ 1000nM (MKNK1) was 100%, the RA @ 10000nM (MKNK1) was 100% and the RA @ 1000nM (p38α) was 2.3%. The RA @ 10000nM (p38α) was 0.4%, the RA @ 1000nM (PCTK1) was 96% and the RA @ 10000nM (PCTK1) was 92%. For the same molecule, the RA @ 1000nM (PLK1) was 100%, the RA @ 10000nM (PLK1) was 100% and the RA @ 1000nM (YANK3) was 100%. For the same molecule, the RA @ 10000nM (YANK3) was 100%, the kinase selectivity (panel of 103 kinases) was “high selectivity for p38α MAPK” and the “measured log D at pH 7.4” value (Log D determination) was 2.13. The “production of IL-12” value (PBMCs) was “increased, albeit at a low level” and the “production of pro-inflammatory cytokines IL-8, IL-1β, IL-6, IL-10, and TNF-α” value (PBMCs) was “significantly inhibited”.

From PMC12406203 (Journal of Medicinal Chemistry, 2025)
